Here are results for one molecule from patent publication US10576085B2, “Substituted aminopurine compounds, compositions thereof, and methods of treatment therewith” (Signal Pharmaceuticals, LLC, priority 2016, dated 2020).

Holding throughout (assay type): cell-based
Experiment [1] deals with SW620. As to the kind of experiment: Proliferation, CellTiter-Glo, 72 h. As to conditions: SW620, Colon.
Experiment [2] concerns surface PD-L1. Briefly: Cell surface PD-L1, FACS, multiple cancer cell lines. The settings on record: 48 h. How it is done:
The effect of Compound 1 was evaluated on PD-L1 expression levels. Cells were cultured in presence or absence of Compound 1 for indicated time before expression levels of PD-L1, DUSP4 and α-tubulin or α-actin were measured by Western blot. To detect surface levels of PD-L1, cells were treated with DMSO or Compound 1 at indicated concentrations for 48 h and cell surface expression of PD-L1 was detected using flow cytometry analysis (FACS) with an APC-labeled antibody to PD-L1 (clone 29E.1A3; BioLegend, San Diego, Calif.). Geometric mean of PD-L1 positive cells was determined by FlowJo 10 (Treestar, Ashland, Oreg.).

Experiment [3] relates to Hep3B. Briefly: Proliferation, CellTiter-Glo, 72 h. The settings on record: Homo sapiens, HCC, β-catenin Active. How it is done:
HCC cell lines were treated with DMSO or increasing concentrations of Compound 1 for 72 h. Specifically, Compound 1 at various concentrations in dimethyl sulfoxide (DMSO) was spotted via an acoustic dispenser (EDC ATS-100) into an empty 384-well plate. Compound 1 was spotted in a 10-point serial dilution fashion (3-fold dilution) in duplicate within the plate. Replicates of plates spotted with Compound 1 were made for use with different cell lines. After compound plate replication, all plates were sealed (Agilent ThermoLoc) and stored at −20° C. for up to 1 month. When ready for testing, plates were removed from the freezer, thawed, and unsealed just prior to the addition of the test cells.
Prior to testing, cells were grown and expanded in culture flasks to provide sufficient amounts of starting material. Cells were then diluted to the appropriate densities and added directly to the compound-spotted 384-well plates. Cells were allowed to grow for 72 h at 37° C./5% CO2. At the time when compound was added (t0), initial cell number was assessed via a viability assay (Cell Titer-Glo) by quantifying the level of luminescence generated by ATP present in viable cells. After 72 h, cell viability of compound-treated cells was assessed via Cell Titer-Glo and luminescence measurement. The apoptotic response to Compound 1 was assessed by quantifying the activities of caspase 3 and caspase 7 (Caspase 3/7-Glo) in treated cells and DMSO control cells.
A Four Parameter Logistic Model (Sigmoidal Dose-Response Model) was used to determine the compound's GI50 value. y=(A+((B−A)/(1+((C/x)^D))))
GI50 is the concentration of the compound when Y=(YMax+Yt0)/2
Cells were treated with DMSO or increasing concentrations of Compound 1 for 72 h. Proliferation was measured using CellTiter-Glo as described.

In the case of `C[C@]1(C(N)=O)CC[C@@H](n2c(Nc3c(Cl)cc(Cl)cc3Cl)nc3cnc(N[C@@H]4CCOC[C@H]4F)nc32)CC1` [Compound 1, cis-4-[2-{[(3S,4R)-3-fluorooxan-4-yl]amino}-8-(2,4,6-trichloroanilino)-9H-purin-9-yl]-1-methyl cyclohexane-1-carboxamide], in experiment [1], the GI50 stood at 47.4 nM and the IC50 came out at 91.8 nM. Further, the “Surface PD-L1 levels” value in experiment [2] is on record as “inhibited”. In experiment [3], this molecule returned an IC50 of 14 nM.
